# Source: patent publication US9682078B2, “Compositions and methods for tissue engineering and cell based therapies” (University of Virginia Patent Foundation, priority 2011, dated 2017)
# Assays:
# [1] = test system: bone marrow cells; test: Transwell migration of bone marrow cells toward SDF-1; type: cell-based, rat; details: pre-treated 10 ng/ml 30 minutes
# Protocol: Bone marrow cells were collected from the tibia of Sprague Daley rats (Charles River), scrum starved for 2 hours, and the cell suspension at 2×10^6 cells/ml was pre-treated with serum-free medium, or 10 ng/ml FTY720-P (Cayman) for 30 minutes and then were re-suspended in serum-free DMEM (Invitrogen). 100 μl of the pre-treated cell suspension was added to the top of 5 μm transwell inserts (Costar) in a 24-well plate. The bottom of the wells contained 600 μl of serum-free DMEM or 12.5 nM SDF-1 (ProspecBio). The cells were incubated at 37° C. for 4 hours, and then the number of cells at the top and the bottom of the transwells were counted using an automatic cell counter. The cells that migrated toward SDF-1 after pre-treatment with FTY720-P were collected from the bottom of the transwells and treated with monoclonal antibodies to CD45, CD11b and CD90 prior to flow analysis. Flow cytometry was performed according to standard procedures and was analyzed on a 9 color CyAn flow cytometer.
# [2] = test system: CD45+/CD11b+/Ly6Chigh/CX3CR1low inflammatory monocytes (IM); test: Transwell migration of sorted inflammatory monocytes after FTY720 pre-treatment; type: cell-based, mouse; details: FIG. 6B
# Description: (§1) CD45^+/CD11b^+/Ly6C^low/CX3CR1^high anti-inflammatory monocytes (AM) and CD45^+/CD11b^+/Ly6C^high/CX3CR1^low inflammatory monocytes (IM) (FIG. 6C) were sorted from mouse marrow. […] In vivo, in tissue from the murine dorsal skinfold window chamber, the recruitment of IMs to dorsal tissue was attenuated with local FTY720 application from PLAGA films (FIG. 6D). Cells that are CD45^+/CD11b^+/Ly6C^high/CX3CR1^low/CD105^+ and have a decreasing expression of Sca1 (a progenitor cell marker) are consistent with endothelial progenitor derived endothelial cells (EPC-ECs). […] Local FTY720 stimulation attenuates the infiltration of inflammatory cells and recruits regenerative stem cells. (See FIGS. 3-6).
# [3] = test system: critical size calvarial bone defects; details: 3D PLAGA scaffolds delivering FTY720; cited from earlier work
# [4] = test system: dorsal microvasculature; test: Murine dorsal skinfold window chamber, intravital microscopy of microvascular remodeling; type: in vivo, mouse; details: S1P3 selectively antagonized on marrow-derived cells (BM S1P3−/−); 3 days post-implantation; FIG. 8
# Protocol: (§2) 1 mm poly(lactic-co-glycolic acid) PLAGA films loaded with S1P receptor compounds are placed within the window chamber as shown. Repeated measurements of the same vessel networks are recorded and quantified over a 7-day time course using intravital microscopy. (FIG. 3).
# [5] = in vivo; cited from earlier work
# [6] = test system: CD45+/CD11b+/Ly6Clow/CX3CR1high anti-inflammatory monocytes (AM); test: Transwell migration of sorted anti-inflammatory monocytes after FTY720 pre-treatment; type: cell-based, mouse; details: FIG. 6A
# Description: as §1
# [7] = test system: dorsal tissue; test: Murine dorsal skinfold window chamber with PLAGA films, flow cytometry of dorsal tissue; type: in vivo, mouse; details: local application from PLAGA films
# Protocol: as §2
# (§3) Backpacks were implanted with PLAGA films and collagenase was used to digest dorsal tissue directly around the implants after 3 days to create single cell suspensions. Flow cytometry was used to assess cellular content. A feeder artery to the spinotrapezius muscle was ligated, creating an ischemic environment, and confocal microscopy on whole-mounted tissue was used to assess CX3CR1 expression in the muscle (FIG. 5).
# [8] = test system: dorsal microvasculature; details: sustained release from 50:50 PLAGA films (1:200 wt/wt); cited from earlier work
# [9] = test system: Lineage1−/Sca1+/c-kit+ (LSK) hematopoietic stem cells; test: Transwell migration of sorted LSK hematopoietic stem cells toward SDF-1 and S1P; type: cell-based, mouse; details: cells pre-treated with compound (15 nM for VPC01091, VPC01211)
# Protocol: Whole bone marrow cells were harvested from C57Bl/6 mice tibiae. They were pre-labeled with antibodies against Lineage 1, Sca1, and c-kit and the LSK subset were sorted, serum starved, and plated at equal concentration after pre-treatment with FTY720. Migration toward media, SDF1, and S1P was calculated.
# Hematopoietic stem cell migration was also studied (FIG. 17). Lineage1−/Sca1+/c-kit+ (LSK) hematopoietic stem cells were sorted and serum starved for two hours. Cells were pre-treated with 15 nM VPC01211 or not and plated for transwell migration assays toward plain media, SDF-1 or S1P.
# [10] = test system: ischemic spinotrapezius muscle; test: Arterial ligation of spinotrapezius muscle with PLAGA film implantation, confocal microscopy; type: in vivo, mouse; details: FIG. 7
# Description: as §3
# [11] = test system: smooth muscle; details: daily injections; cited from earlier work
# [12] = test system: whole BMCs on FBMD-1 stromal cells; test: Cobblestone area-forming cell assay; type: cell-based, mouse; details: BMCs pre-treated 30 minutes; FIG. 19
# Description: Ordinate—% Positive Wells.
# [13] = target: S1P3 receptor (Homo sapiens, UniProt Q99500); details: cited from earlier work
# [14] = test system: 5 mm cranial defects; test: Rat cranial critical size bone defect, microCT and flow cytometry; type: in vivo
# Protocol: 5 mm cranial defects were made in 36 nine weeks old Sprague Daley rats, which were divided into 4 groups (n=9). The rats were treated with a systemic dose of 1 mpk VPC01091, FTY720 coated semi-circular allograft, FTY720 coated semi-circular allograft+a systemic dose of 1 mpk VPC01091 or left untreated. VPC01091 was given the day after surgery and 3 weeks post-surgery. Hemavet (Drew Scientifics) was used to measure the concentrations of blood cells at days 0, week 1 and week 2 (n=6) (data not shown). The amount of bone regeneration was measured bi-weekly with microCT imaging (n=3-9). Flow cytometry was performed according to standard procedures on the tissue harvested from the defect sites at week 3 (n=3), and from peripheral blood at week 6 (n=3). Monoclonal antibodies (Invitrogen, Abeam) for rat CD45, CD11b, CD54, CD90 were used in both cases. Mason's Trichrome and H&E staining were done for done for all groups (n=3).
# [15] = test system: donor (GFP+) cells; test: Bone marrow transplant after lethal irradiation with equal number of mobilized cells; details: two-week chimerism after competitive BMT with equal numbers of mobilized cells; FIG. 10D
# Protocol: WT mice were irradiated & reconstituted with mobilized peripheral blood cells from GFP+ mice. After varying amounts of time, blood was collected via the retro-orbital sinus and bone marrow was harvested to assess chimerism over time.
# 100 μL blood was plated on methocult stem cell differentiation medium and after 6 days colony forming units were quantified. […] Cells tested included—Host cells, PB donor cells and BM donor cells were tested. Treatments included—AMD cells, A+V cells, AMD Sca1+, A+V Sca1+, AMD CD45+, A+V CD45+, AMD CD11b+, and A+V CD11b+.
# [16] = target: S1P1 receptor (Homo sapiens, UniProt P21453); details: cited from earlier work
# [17] = in the absence of a carrier protein; cited from earlier work
# [18] = PLAGA film, ligated feeder artery
# Sequence of S1P1 receptor (P21453 whole entry): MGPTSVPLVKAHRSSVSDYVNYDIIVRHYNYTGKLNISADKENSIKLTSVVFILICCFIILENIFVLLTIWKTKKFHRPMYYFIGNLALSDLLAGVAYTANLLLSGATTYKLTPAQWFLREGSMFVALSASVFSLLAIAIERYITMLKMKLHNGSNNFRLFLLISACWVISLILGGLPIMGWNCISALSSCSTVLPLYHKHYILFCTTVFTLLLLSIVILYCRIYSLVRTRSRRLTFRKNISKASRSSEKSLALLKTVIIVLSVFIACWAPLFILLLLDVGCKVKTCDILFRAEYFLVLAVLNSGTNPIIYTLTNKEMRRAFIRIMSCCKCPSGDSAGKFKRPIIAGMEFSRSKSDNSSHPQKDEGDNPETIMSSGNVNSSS
# Sequence of S1P3 receptor (Q99500 whole entry): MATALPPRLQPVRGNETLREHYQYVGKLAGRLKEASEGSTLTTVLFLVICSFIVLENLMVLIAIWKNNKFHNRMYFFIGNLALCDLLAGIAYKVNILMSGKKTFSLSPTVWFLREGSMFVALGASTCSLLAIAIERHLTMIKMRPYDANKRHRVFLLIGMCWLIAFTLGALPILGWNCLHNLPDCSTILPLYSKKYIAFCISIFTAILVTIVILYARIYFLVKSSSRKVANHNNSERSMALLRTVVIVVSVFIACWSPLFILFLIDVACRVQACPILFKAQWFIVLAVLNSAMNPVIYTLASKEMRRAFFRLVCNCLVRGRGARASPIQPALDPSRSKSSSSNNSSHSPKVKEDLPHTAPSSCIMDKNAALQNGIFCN
compound,measurement,setting,value
CCCCCCCCc1ccc(CC[C@](N)(CO)COP(=O)(O)O)cc1 [FTY720-P],total number of cells migrating toward SDF-1,"[1]; 12.5 nM SDF-1, 4 hours, FIG. 11E",significantly increased
same,percentage of CD90+; CD45−/CD11b− cells migrating toward SDF-1,[1]; FIG. 11F,higher percentage
"CCCCCCCCc1ccc(CCC(N)(CO)CO)cc1 [FTY720, 2-amino-2-[2-(4-octylphenyl)ethyl]propane 1,3-diol]",migration of IMs towards S1P,[2],decreased
same,migration of IMs towards SDF-1,[2],decreased
same,osseous tissue ingrowth,[3],significantly increases
same,proportion of mature smooth muscle cell-invested microvessels within the bony defect,[3],significantly increases
same,FTY720-induced microvascular remodeling,[4],impaired
same,half-life,[5],approximately 7 days
same,migration of AMs towards SDF-1,[6],increased
same,EPC-ECs in dorsal tissue,[7],increased
same,recruitment of IMs to dorsal tissue,[7]; FIG. 6D,attenuated
same,arteriole formation and enlargement,[8],promotes formation of new arterioles and structural enlargement of existing arterioles
same,HSC migration / homing toward S1P,[9],abolishes
same,HSC migration / homing toward SDF-1,[9],improves
same,recruitment of vessel-associated CX3CR1+ cells,[10]; CX3CR1-eGFP mice,recruitment of vessel-associated CX3CR1+ cells
same,remodeling in ischemic muscle,[10]; [18],induces remodeling in ischemic muscle
same,tortuosity of vessels,[10]; [18],promotes tortuosity of vessels
CCCCCCCCc1cccc(NC(=O)[C@H](N)CCP(=O)(O)O)c1 [VPC44116],smooth muscle proliferation and migration,[11],significantly decreased
CCCCCCCCc1ccc(C2CCC(N)(COP(=O)(O)O)C2)cc1 (stereo not shown) [VPC01211],HSC migration / homing toward S1P,[9],did not affect
same,HSC migration / homing toward SDF-1,[9],abrogated
same,adhesion / engraftment on bone marrow stromal cell layer,[12],less engraftment than AMD3100
CCCCCCCCc1ccc(C2CCC(N)(CO)C2)cc1 (stereo not shown) [VPC01091],activity at S1P3 receptor,[13],antagonist
same,bone regeneration compared to the empty defect controls,"[14]; systemic 1 mpk, day after surgery and 3 weeks post-surgery, microCT, FIG. 11",substantial bi-weekly increase
same,percentage of CD54 and CD90 positive cells in the defect region,"[14]; week 3, FIG. 12a",increase
same,percentage of CD54 and CD90 positive cells in the blood,"[14]; week 6, FIG. 12b",increase
same,engraftment and repopulation efficiency in vivo,[15],does not impair
same,activity at S1P1 receptor,[16],agonist
same,HSC migration / homing toward S1P,[9],sensitized
same,HSC migration / homing toward SDF-1,[9],desensitized
"CCCCCCCCCCCCC/C=C/[C@@H](O)[C@@H](N)COP(=O)(O)O [S1P, Sphingosine 1-phosphate]",solubility in aqueous solutions,[17],insoluble
same,half-life in blood,[5],less than 1 hour
